{"source": "patent US20160367497A1", "about": "“METHODS AND COMPOSITIONS FOR TREATING NEUROPATHIES” (Washington University, priority 2007, published 2016)", "key": {"neuro2A cells": {"tested_on": "neuro2A cells", "assay": "neurite outgrowth in Neuro2a cells", "format": "cell-based", "details": "for effect on resveratrol-stimulated neurite outgrowth: resveratrol 10 μM, Compound C 10 μM, SIRT1 inhibitors, STO 609 2.5 μM or dnAMPK expression", "experimental": "FIG. 11A-D illustrates the resveratrol and AICAR stimulation of neurite outgrowth in Neuro2a cells. Neuro2a cells were switched to serum-starvation medium (medium containing 0.2% FCS) and treated with DMSO (vehicle control), resveratrol (10 μM) or AICAR (1 mM). (A) Serum deprivation of Neuro2a cells results in growth of short neurites that increase in length over 72 h. (B) Resveratrol induced rapid neurite outgrowth resulting in elaborate neurite network formation by 48 h. (C) AICAR stimulated extensive neurite outgrowth similar to that observed with resveratrol. (D).\nFIG. 12A-M illustrates the dependency of resveratrol-induced neurite outgrowth and mitochondrial biogenesis on AMPK. Neuro2a cells were infected with lentivirus expressing GFP only (FUGW, control), dominant negative AMPK (dnAMPK) or constitutively active AMPK (caAMPK). Three days later cells were shifted to serum-starvation medium containing DMSO (control) or resveratrol (10 μM). In addition, uninfected Neuro2a cells in serum-starvation medium were treated with resveratrol alone, the AMPK inhibitor Compound C (CC, Biomol International L.P. (Plymouth Meeting, Pa.)) (10 μM) alone or with resveratrol and CC together. Images of the cultures captured in bright field and green fluorescence were overlaid to visualize neurite outgrowth. […] Neurite length in cells treated with caAMPK+resveratrol is also shown (G). […] Values were normalized to the 18S transcript. Data shown is representative of two independent experiments.\n(§1) Cell culture and Reagents. Neuro2 cells obtained from ATCC were grown in MEM with 1.5 g/L sodium bicarbonate, 0.1 mM nonessential amino acids, 0.1 mM sodium pyruvate, 2 mM L-glutamine with 10% FCS. For differentiation, cells were switched to serum-starvation medium (containing 0.2% FCS). For neurite outgrowth measurements, experiments were done in quadruplicate and 100 neurites per well were randomly measured using the Metamorph software. Dorsal root ganglia sensory and cortical neurons were established from E13.5 mouse embryos, maintained in neurobasal medium supplemented with B27 (and NGF for DRG neurons) and infected with lentiviruses as described (Araki et al., 2004, Science 305:1010-1013; Hawley et al., 2005, Cell Metab 2:21-23). Resveratrol was a gift from Sirtris Pharmaceuticals (Cambridge Mass.) and AICAR was obtained from Toronto Research (North York, Canada). Splitomycin and Compound C were purchased from Biomol (Plymouth Meeting, Pa.) and Calbiochem (San Diego, Calif.). Sirtinol and nicotinamide were purchased from Sigma (Saint Louis, Mo.)\nNeuro2a cells are a widely used as in vitro model of neuronal differentiation. These cells cease to proliferate and begin to differentiate, as evidenced by neurite outgrowth, in response to serum starvation, retinoic acid, or growth factors like neurotrophins and GDNF family ligands. […] Neuro2a cells grown under serum starvation conditions (0.2% fetal calf serum) were treated with AICAR (1 mM) or resveratrol (10 μM).\nSince resveratrol activated AMPK and altered the differentiation of Neuro2a cells, we next asked whether AMPK activity was required for resveratrol-induced neurite outgrowth. To address this issue, we infected Neuro2a cells with lentivirus expressing either GFP alone (FUGW-control) or dominant negative AMPK (dnAMPK). After 3 days growth to allow robust lentiviral transgene expression, the medium was replaced with serum starvation medium. […] Resveratrol-induced neurite outgrowth was reduced in the presence of the AMPK pharmacological inhibitor Compound C (CC 10 μM) further supporting the importance of AMPK activity for resveratrol-induced neurite outgrowth."}, "AMPK": {"tested_on": "AMPK", "assay": "AMPK and ACC phosphorylation in cortical neurons", "format": "cell-based, mouse", "details": "for effect on resveratrol-induced AMPK phosphorylation: cortical neurons, resveratrol 10 μM, 2 h", "excerpt": "FIG. 16A-F illustrates that resveratrol activates AMP kinase in cortical neurons through Lkb1 and CaMKKβ. (A) Cortical neuron cultures were established from E 13.5 Lkb1 flox/flox embryos and infected with lentivirus expressing Cre recombinase (FCIV-Cre) or GFP only (FUGW control). Lentiviral infection of cortical neurons was monitored by GFP fluorescence (A). […] Lkb1 flox/flox cortical neurons were infected with FUGW or FCIV-Cre and treated as indicated. AMPK or ACC was immunoprecipitated from neuronal lysates and western blots were probed with the respective phospho-specific antibodies. […] Lysates from AICAR treated cortical neurons is included as a positive control. (E, F) Embryonic cortical neurons were cultured from wild type and SIRT1-deficient littermates derived from SIRT1 heterozygous matings. […] Levels of total AMPK and ACC are shown in the bottom panels of C, D, E and F.\nas §1\nPlasmids and viruses. The dominant negative (dnAMPK) and constitutively active (caAMPK) plasmids were gifts from Russell Jones (University of Pennsylvania, Philadelphia Pa.), and pCXN-Cre was a gift of Inder Verma (Salk Institute, San Diego, Calif.). All constructs were subcloned into the lentiviral shuttle vector FCIV and verified by nucleotide sequence analysis. Viruses were prepared as previously described (Araki et al., 2004, Science 305:1010-1013). Protein and mRNA analysis. Immunoprecipitations and western blot analysis were performed by standard methods using antibodies directed against total AMPK, phosphorylated AMPK, total ACC or phosphorylated ACC that were obtained from Cell Signaling Technology (Beverley, Mass.). The phospho-AMPK antibody detects endogenous AMPK α1 and α2 when phosphorylated at threonine 172. The LKB1 antibody was purchased from Upstate (Lake Placid, N.Y.). Quantitative RT-PCR analysis was performed using Sybr-Green methodology on a model 7700 instrument (Applied Biosystems) as previously described (Araki et al., 2004, Science 305:1010-1013). Primer sequences were those used in previous studies (Motoshima, et al., 2006, J Physiol 574:63-71).\nResveratrol activation of AMPK in Neuro2a cells along with the crucial role of AMPK in promoting neurite outgrowth in these cells encouraged us to examine this pathway in primary neurons. We treated E13.5 mouse dorsal root ganglia (DRG) sensory and cortical neuron cultures with resveratrol (10 μM) or AICAR (1 mM). […]"}}, "data": [{"smiles": "NC(=O)c1cccnc1", "note": "[Nam, nicotinamide]", "values": [{"measurement": "effect on resveratrol-stimulated neurite outgrowth", "setting": "neuro2A cells", "result": "had no effect"}, {"measurement": "effect on resveratrol-induced AMPK phosphorylation", "setting": "AMPK", "result": "none of the SIRT inhibitors"}]}, {"smiles": "O=C(O)c1ccc2c3c1cccc3c(=O)n1c3ccccc3nc21", "note": "[STO 609]", "values": [{"measurement": "effect on resveratrol-stimulated neurite outgrowth", "setting": "neuro2A cells", "result": "had no effect"}, {"measurement": "effect on resveratrol-induced AMPK phosphorylation", "setting": "AMPK", "result": "did inhibit AMPK and ACC phosphorylation"}]}, {"smiles": "CC(NC(=O)c1ccccc1/N=C/c1c(O)ccc2ccccc12)c1ccccc1", "note": "(stereo not shown) [Sirtinol]", "values": [{"measurement": "effect on resveratrol-stimulated neurite outgrowth", "setting": "neuro2A cells", "result": "had no effect"}, {"measurement": "effect on resveratrol-induced AMPK phosphorylation", "setting": "AMPK", "result": "none of the SIRT inhibitors"}]}, {"smiles": "Oc1ccc(C=Cc2cc(O)cc(O)c2)cc1", "note": "[resveratrol]", "values": [{"measurement": "neurite outgrowth compared to serum starvation alone", "setting": "neuro2A cells; 0.2% FCS, resveratrol 10 μM or AICAR 1 mM", "result": "increased neurite outgrowth"}, {"measurement": "phosphorylation of AMPK and ACC", "setting": "AMPK; E13.5 cortical neurons, 10 μM", "result": "stimulated phosphorylation of AMPK and ACC"}]}, {"smiles": "O=C1CCc2c(ccc3ccccc23)O1", "note": "[splitomycin]", "values": [{"measurement": "effect on resveratrol-stimulated neurite outgrowth", "setting": "neuro2A cells", "result": "had no effect"}, {"measurement": "effect on resveratrol-induced AMPK phosphorylation", "setting": "AMPK", "result": "none of the SIRT inhibitors"}]}]}
